Source: US20170226081A1, “GLUCOSE TRANSPORT INHIBITORS” (Bayer Pharma Aktiengesellschaft, priority 2014, published 2017)

Tests used:
GLUT2 = target: T1, GLUT2 (Homo sapiens, UniProt P11168); assay: Indirect measurement of GLUT activity by quantification of intracellular ATP levels (fructose induced ATP increase); type: cell-based; conditions: 30 mM fructose, 1 uM Rotenone, 15 min; read-out: IC50 regarding fructose induced ATP increase (GLUT2 inhibition)
T1 sequence (P11168 1-524): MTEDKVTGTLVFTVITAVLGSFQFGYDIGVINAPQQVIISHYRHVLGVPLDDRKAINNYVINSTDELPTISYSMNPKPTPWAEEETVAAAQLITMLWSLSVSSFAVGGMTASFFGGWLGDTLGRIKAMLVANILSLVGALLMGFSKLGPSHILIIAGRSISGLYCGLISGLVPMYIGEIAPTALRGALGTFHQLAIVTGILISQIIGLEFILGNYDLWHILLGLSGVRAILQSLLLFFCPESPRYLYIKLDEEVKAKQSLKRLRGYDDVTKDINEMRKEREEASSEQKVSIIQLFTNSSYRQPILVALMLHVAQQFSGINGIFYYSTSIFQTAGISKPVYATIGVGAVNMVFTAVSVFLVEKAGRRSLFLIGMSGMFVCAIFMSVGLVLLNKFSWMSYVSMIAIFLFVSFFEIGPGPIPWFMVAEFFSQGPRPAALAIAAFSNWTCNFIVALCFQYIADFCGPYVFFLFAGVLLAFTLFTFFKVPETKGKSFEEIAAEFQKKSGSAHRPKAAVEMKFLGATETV
Text: It is well known that a combination of small-molecule inhibitors of mitochondrial electron transport chain and glucose catabolism synergistically suppress ATP production and impair cellular viability (Ulanovskaya et al., 2008, 2011; Liu, et al. 2001). We therefore used DLD1 or CHO-K1 cells in combination with an oxidative phosphorylation inhibitor to identify GLUT inhibitors. Cell lines were maintained in DMEM medium supplemented with 10% FCS and 1% Penicillin-Streptomycin solution and 2% Glutamax. The cells were treated with trypsin and seeded into 384 plates at a density of 4000 cells/well. The cells were then cultured overnight in glucose free media containing 1% FCS to reduce intracellular ATP levels. After 24 h the cells were incubated at 37° C. containing the appropriate glucose or in case of GLUT2 fructose concentration (1 mM and 30 mM respectively) with or without compounds and 1 uM Rotenone for 15 min. The CellTiter-Glo® Luminescent Cell Viability Assay from Promega was then used to measure ATP levels. Compounds able to reduce the ATP Levels within 15 min of glucose application were considered to be glucose uptake inhibitors.

GLUT1 = target: T2, GLUT1 (Homo sapiens, UniProt P11166); assay: Indirect measurement of GLUT activity by quantification of intracellular ATP levels (glucose induced ATP increase); type: cell-based; conditions: DLD1 cells; 1 mM glucose, 1 uM Rotenone, 15 min; standardized to cytochalasin B IC50 values; read-out: IC50 regarding glucose induced ATP increase (GLUT1 inhibition)
T2 construct: endogenous in cells
T2 sequence (P11166 1-492): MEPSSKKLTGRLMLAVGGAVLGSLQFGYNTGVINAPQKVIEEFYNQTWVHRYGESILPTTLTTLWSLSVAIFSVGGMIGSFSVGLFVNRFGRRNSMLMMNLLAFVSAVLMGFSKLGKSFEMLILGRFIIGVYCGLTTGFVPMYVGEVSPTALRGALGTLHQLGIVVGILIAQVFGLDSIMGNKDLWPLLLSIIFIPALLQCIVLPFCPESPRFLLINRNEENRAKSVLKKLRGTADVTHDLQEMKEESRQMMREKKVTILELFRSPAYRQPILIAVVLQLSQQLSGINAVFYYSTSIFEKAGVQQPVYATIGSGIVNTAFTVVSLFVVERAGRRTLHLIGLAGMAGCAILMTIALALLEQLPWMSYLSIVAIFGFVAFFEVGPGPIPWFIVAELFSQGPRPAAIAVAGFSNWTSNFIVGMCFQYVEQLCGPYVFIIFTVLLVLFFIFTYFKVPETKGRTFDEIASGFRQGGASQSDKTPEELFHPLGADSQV
How it was run: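 DLD1 or CHO-K1 cells were glucose-starved overnight in 1% FCS medium, then exposed 15 min at 37 °C to compound plus 1 uM rotenone with 1 mM glucose (GLUT1) or 30 mM fructose (GLUT2). Intracellular ATP was read by CellTiter-Glo luminescence; ATP reduction indicated uptake inhibition.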

IC50 (GLUT2) | IC50 (GLUT1) | Structure (SMILES)
36.1 µM | 0.0043 µM | Cc1nn(Cc2ccc(C#N)cc2)cc1NC(=O)c1cc(C(N)=O)nc2ccccc12 [Example 9, N^4-[1-(4-cyanobenzyl)-3-methyl-1H-pyrazol-4-yl]quinoline-2,4-dicarboxamide]
5.21 µM | 0.061 µM | Cc1ccc2nc(C)cc(C(=O)Nc3cn(Cc4ccc(F)cc4)nc3C)c2c1 [Example 1, N-[1-(4-fluorobenzyl)-3-methyl-1H-pyrazol-4-yl]-2,6-dimethylquinoline-4-carboxamide]
